Measured values reported in patent publication US20190085289A1, “COMPOSITIONS AND METHODS FOR PATHOGEN INACTIVATION OF PLATELETS” (Cerus Corporation, priority 2017, published 2019).

Assay: Stability and photoconversion of S-59 in PAS/plasma with platelets and bacteria (HPLC)
Type: physicochemical
Settings: for % S-59 conversion: after UVA
Protocol: Another study evaluated 24 hour stability and photoconversion of amotosalen (S-59) in PAS with plasma and platelets, in the presence of bacteria. Two ABO matched platelet units in 100% plasma were pooled, split into two units and InterSol® PAS added (e.g., 65/35). S-59 was added to the test unit at a concentration of 150 but not initially to the control unit. A log culture of K. pneumoniae (˜8 log cfu/mL) was added to the units at a target of ˜60 CFU/unit and the units were incubated in a platelets shaker at 22° C. for approximately 24 hours. At the end of incubation, S-59 was also added to the control unit at the same concentration and both control and test units were subjected to UVA light. Samples were taken pre- and post-UVA illumination for both units bacterial titer assay and HPLC. Post-illumination both units were subjected to a CAD processing step to remove residual amotosalen and photoproducts and stored on a platelet shaker for 7 days to confirm no growth of bacteria.

With `Cc1oc2c(C)c3oc(=O)cc(C)c3cc2c1COCCN` [S-59, 3-(2-aminoethoxymethyl)-2,5,9-trimethylfuro[3,2-g]chromen-7-one] the S-59 concentration stability (24 hour incubation period, control and test units, with K. pneumoniae) was “stable”, the S-59 concentration (Control unit (S-59 added at end of ~24 h incubation), platelets + K. pneumoniae, T_24h, Avg.) was 149 µM and the S-59 concentration (Control unit (S-59 added at end of ~24 h incubation), T_24h, Replicate 1) was 144 µM. It also gave a S-59 concentration (Control unit (S-59 added at end of ~24 h incubation), T_24h, Replicate 2) of 153 µM, a S-59 concentration (Control unit (S-59 added at end of ~24 h incubation), T_Post-UVA, Avg.) of 40 µM and a S-59 concentration (Control unit (S-59 added at end of ~24 h incubation), T_Post-UVA, Replicate 1) of 43 µM. The S-59 concentration (Control unit (S-59 added at end of ~24 h incubation), T_Post-UVA, Replicate 2) was 37 µM, the “% S-59 conversion” value (Control unit (S-59 added at end of ~24 h incubation), Avg.) was 27% and the “% S-59 conversion” value (Control unit (S-59 added at end of ~24 h incubation), Replicate 1) was 30%. For the same compound, the “% S-59 conversion” value (Control unit (S-59 added at end of ~24 h incubation), Replicate 2) was 24%, the S-59 concentration (Test unit (S-59 150 added before incubation), PAS/plasma platelets + K. pneumoniae, 22° C., T_0, Avg.) was 152 µM and the S-59 concentration (Test unit (S-59 added before incubation), platelets + K. pneumoniae, T_0, Replicate 1) was 149 µM. The S-59 concentration (Test unit (S-59 added before incubation), platelets + K. pneumoniae, T_0, Replicate 2) was 155 µM, the S-59 concentration (Test unit (S-59 added before incubation), platelets + K. pneumoniae, T_24h, Avg.) was 153 µM and the S-59 concentration (Test unit (S-59 added before incubation), T_24h, Replicate 1) was 149 µM. The S-59 concentration (Test unit (S-59 added before incubation), T_24h, Replicate 2) was 157 µM, the S-59 concentration (Test unit (S-59 added before incubation), T_Post-UVA, Avg.) was 26 µM and the S-59 concentration (Test unit (S-59 added before incubation), T_Post-UVA, Replicate 1) was 27 µM. The S-59 concentration (Test unit (S-59 added before incubation), T_Post-UVA, Replicate 2) was 24 µM, the “% S-59 conversion” value (Test unit (S-59 added before incubation), Avg.) was 17% and the “% S-59 conversion” value (Test unit (S-59 added before incubation), Replicate 1) was 18%. The “% S-59 conversion” value (Test unit (S-59 added before incubation), Replicate 2) was 15%.
